# Measured values from ChEMBL document CHEMBL4251597, “Discovery and evolution of aloperine derivatives as a new family of HCV inhibitors with novel mechanism” (Eur J Med Chem, 2018).
# Columns and labels:
# [1] = tested on: Hepatitis C virus; assay: Antiviral activity against HCV J6/JFH/JC-1 infected in human Huh7.5 cells assessed as inhibition of viral RNA replication after 72 hrs by qRT-PCR method; format: functional, organism-based, Hepacivirus hominis; details: J6/JFH/JC-1, Huh7.5, 72 h
# [2] = Cytotoxicity against human Huh7.5 cells after 72 hrs by MTT assay; format: cell-based
# [3] = Selectivity index, ratio of CC50 for human Huh7.5 cells to EC50 for HCV J6/JFH/JC-1; format: toxicity; details: read-out: Ratio CC50/EC50
# [4] = AUC (0 to t) in mouse at 25 mg/kg, po after 0.25 to 6 hrs; format: ADME, organism-based; design: time upper 6 hr, time lower 0.25 hr, dose 25 mg/kg, route oral; details: in vivo
# [5] = MRT in mouse at 25 mg/kg, po after 0.25 to 6 hrs; format: ADME, organism-based; details: in vivo
# [6] = Cmax in mouse at 25 mg/kg, po after 0.25 to 6 hrs; format: ADME, organism-based; design: dose 25 mg/kg, route oral; details: in vivo
# [7] = Acute toxicity in po dosed Kunming mouse measured for 7 days; format: organism-based; details: in vivo
# [8] = Half life in mouse at 25 mg/kg, po after 0.25 to 6 hrs; format: ADME, organism-based; details: in vivo
# [9] = Tmax in mouse at 25 mg/kg, po after 0.25 to 6 hrs; format: ADME, organism-based; details: in vivo
SMILES,EC50 [1] [µM],CC50 at 72 h [2] [µM],selectivity ratio [3],AUC(0-t) [4] [µM·h],MRT [5] [h],Cmax [6] [nM],LD50 at 168 h [7] [mg/kg],half-life [8] [h],Tmax [9] [h]
COC(=O)c1ccc(S(=O)(=O)N2CCCC3=C[C@H]4C[C@H](CN5CCCC[C@H]45)[C@@H]32)cc1,80.6,283,3.51,–,–,–,–,–,–
O=C1c2ccccc2C(=O)N1CCS(=O)(=O)N1CCCC2=C[C@H]3C[C@H](CN4CCCC[C@H]34)[C@@H]21,68.6,> 500,> 7.29,–,–,–,–,–,–
COc1ccc(S(=O)(=O)N2CCCC3=C[C@H]4C[C@H](CN5CCCC[C@H]45)[C@@H]32)cc1C,4.89,73.2,15,–,–,–,–,–,–
COC(=O)c1ccccc1S(=O)(=O)N1CCCC2=C[C@H]3C[C@H](CN4CCCC[C@H]34)[C@@H]21,8.2,269,32.8,–,–,–,–,–,–
CC(=O)c1ccc(S(=O)(=O)N2CCCC3=C[C@H]4C[C@H](CN5CCCC[C@H]45)[C@@H]32)cc1,5.57,234,42.1,–,–,–,–,–,–
O=C(O)c1ccccc1S(=O)(=O)N1CCCC2=C[C@H]3C[C@H](CN4CCCC[C@H]34)[C@@H]21,46.4,> 500,> 10.8,–,–,–,–,–,–
C1=C2CCCN(Cc3ccncc3)[C@H]2[C@@H]2C[C@H]1[C@H]1CCCCN1C2,97.9,> 500,> 5.11,–,–,–,–,–,–
NCCS(=O)(=O)N1CCCC2=C[C@H]3C[C@H](CN4CCCC[C@H]34)[C@@H]21,2.72,264,97.2,7.78,5.96,1450,750,10.2,1.17
O=S(=O)(c1ccc2c(c1)CCO2)N1CCCC2=C[C@H]3C[C@H](CN4CCCC[C@H]34)[C@@H]21,8.65,217,25.1,–,–,–,–,–,–
COc1ccc(S(=O)(=O)N2CCCC3=C[C@H]4C[C@H](CN5CCCC[C@H]45)[C@@H]32)cc1,6.01,102,16.9,–,–,–,–,–,–
N#Cc1ccccc1CN1CCCC2=C[C@H]3C[C@H](CN4CCCC[C@H]34)[C@@H]21,1.95,18.8,9.64,–,–,–,–,–,–
O=S(=O)(c1ccncc1)N1CCCC2=C[C@H]3C[C@H](CN4CCCC[C@H]34)[C@@H]21,11.4,371,32.6,–,–,–,–,–,–
N#Cc1ccccc1S(=O)(=O)N1CCCC2=C[C@H]3C[C@H](CN4CCCC[C@H]34)[C@@H]21,3.32,256,77.1,–,–,–,–,–,–
CC(=O)Nc1nc(C)c(S(=O)(=O)N2CCCC3=C[C@H]4C[C@H](CN5CCCC[C@H]45)[C@@H]32)s1,12.4,182,14.7,–,–,–,–,–,–
COc1cc(C(=O)N2CCCC3=C[C@H]4C[C@H](CN5CCCC[C@H]45)[C@@H]32)cc(OC)c1OC,28.3,290,10.2,–,–,–,–,–,–
COc1ccccc1CN1CCCC2=C[C@H]3C[C@H](CN4CCCC[C@H]34)[C@@H]21,6.78,69.3,10.2,–,–,–,–,–,–
C1=C2CCCN[C@H]2[C@@H]2C[C@H]1[C@H]1CCCCN1C2,4.32,235,54.5,–,–,–,–,–,–

SMILES,EC50 [1] [µM],CC50 at 72 h [2] [µM],selectivity ratio [3],AUC(0-t) [4] [µM·h],MRT [5] [h],Cmax [6] [nM],LD50 at 168 h [7] [mg/kg],half-life [8] [h],Tmax [9] [h]
N#Cc1ccc(S(=O)(=O)N2CCCC3=C[C@H]4C[C@H](CN5CCCC[C@H]45)[C@@H]32)cc1,3.4,265,78,0.77,1.82,410,–,1.97,0.33
COc1ccc(C(=O)N2CCCC3=C[C@H]4C[C@H](CN5CCCC[C@H]45)[C@@H]32)cc1,62.5,> 500,> 8,–,–,–,–,–,–
O=[N+]([O-])c1ccc(CN2CCCC3=C[C@H]4C[C@H](CN5CCCC[C@H]45)[C@@H]32)cc1,3.56,94.4,26.5,–,–,–,–,–,–
Nc1ccc(S(=O)(=O)N2CCCC3=C[C@H]4C[C@H](CN5CCCC[C@H]45)[C@@H]32)cc1,10.7,288,26.9,–,–,–,–,–,–
COc1ccc(Cl)cc1S(=O)(=O)N1CCCC2=C[C@H]3C[C@H](CN4CCCC[C@H]34)[C@@H]21,1.21,92.9,76.8,–,–,–,–,–,–
CS(=O)(=O)c1ccc(S(=O)(=O)N2CCCC3=C[C@H]4C[C@H](CN5CCCC[C@H]45)[C@@H]32)cc1,18.7,186,9.97,–,–,–,–,–,–
CC(=O)Nc1ccc(S(=O)(=O)N2CCCC3=C[C@H]4C[C@H](CN5CCCC[C@H]45)[C@@H]32)cc1,54.7,309,5.64,–,–,–,–,–,–
O=S(=O)(c1ccc2c(c1)OCCO2)N1CCCC2=C[C@H]3C[C@H](CN4CCCC[C@H]34)[C@@H]21,23.5,> 500,> 21.3,–,–,–,–,–,–
O=C(O)c1ccc(S(=O)(=O)N2CCCC3=C[C@H]4C[C@H](CN5CCCC[C@H]45)[C@@H]32)cc1,> 167,> 500,–,–,–,–,–,–,–
COc1ccc(S(=O)(=O)N2CCCC3=C[C@H]4C[C@H](CN5CCCC[C@H]45)[C@@H]32)cc1OC,6.39,215,33.6,–,–,–,–,–,–
COc1ccc(CN2CCCC3=C[C@H]4C[C@H](CN5CCCC[C@H]45)[C@@H]32)cc1,0.96,83.1,86.6,–,–,–,–,–,–
CC(C)Oc1ccc(S(=O)(=O)N2CCCC3=C[C@H]4C[C@H](CN5CCCC[C@H]45)[C@@H]32)cc1,1.81,34.8,19.2,–,–,–,–,–,–
O=S(=O)(c1cccc2nsnc12)N1CCCC2=C[C@H]3C[C@H](CN4CCCC[C@H]34)[C@@H]21,5.5,314,57.2,–,–,–,–,–,–
O=C(O)c1ccc(C(=O)N2CCCC3=C[C@H]4C[C@H](CN5CCCC[C@H]45)[C@@H]32)cc1,73.7,> 500,> 6.78,–,–,–,–,–,–
COC(=O)c1ccc(C(=O)N2CCCC3=C[C@H]4C[C@H](CN5CCCC[C@H]45)[C@@H]32)cc1,11.6,271,23.4,–,–,–,–,–,–
O=S(=O)(c1cccc2cccnc12)N1CCCC2=C[C@H]3C[C@H](CN4CCCC[C@H]34)[C@@H]21,7.35,249,33.8,–,–,–,–,–,–
Cc1nc(N)sc1S(=O)(=O)N1CCCC2=C[C@H]3C[C@H](CN4CCCC[C@H]34)[C@@H]21,6.03,209,34.7,–,–,–,–,–,–
